Results: patent US11793823B2, “Compounds and pharmaceutical uses thereof” (SyneuRx International (Taiwan) Corp., priority 2020, dated 2023)
Where two headings read alike, the source gives them in different places.

Legend:
[1] = molecular target: human D-amino acid oxidase (hDAAO) (Homo sapiens (Human), UniProt P14920); test: In vitro human D-amino acid oxidase (hDAAO) activity, D-Serine/Amplex Red fluorescence; assay type: biochemical; conditions: D-Serine substrate, 20 min
Method: The hDAAO inhibitory activities were measured by using D-Serine as a substrate to produce H2O2. The produced H2O2 would be oxidized by peroxidase, and the produced free radicals would further react with Amplex Red reagent to emit fluorescence. The intensity of fluorescence at 590 nm would be measured to represent the activity of hDAAO. All compounds were dissolved in DMSO. Each compound was diluted with DMSO in 3-fold serial dilution to create a dose response curve. Each sample was added in triplicate, 1 µL/well, into 96-well black plates. Positive control wells were added with 1 μL of DMSO. Then 49 μL of assay buffer (100 mM Tris-HCl, pH 8.5) containing 1.2 ng/mL hDAAO, 900 nM FAD, 0.2 units/mL HRP, and 100 μM Amplex Red was added to each well of the plate using a multichannel pipette. Next, 50 μL of 100 mM D-Serine in assay buffer was added. The reaction plates were then incubated in the dark at room temperature. The fluorescence readout was detected at 0 and 20 mins by Molecular Device Gemini EM fluorescence reader using the following settings: excitation filter 530 nm, and emission filter 590 nm. The percentage of inhibition values for each well was calculated with the following equation: The percentage of inhibition=(fluorescence sample, 20 min−fluorescence sample, 0 min)/(fluorescence DMSO, 20 min−fluorescence DMSO, 0 min)×100%
The nonlinear curve fitting model in GraphPad Prism was used to calculate IC50 value for each compound.

MK-801 treated mice [2] = test: Pre-pulse inhibition (PPI) test, MK-801 induced deficit of sensorimotor gating; assay type: in vivo; conditions: MK-801 0.3 mg/kg i.p.
Method: (§1) C57BL/6J male mice were group housed (3-5 mice per cage) with food and water available ad libitum in polysulfone ventilated cages (Alternative Design, AR, USA) in the animal room of SyneuRx. The colony was maintained on a 12/12-h light/dark cycle at the temperature of 22±2° C. and all behavioral studies were performed during the dark cycle. All animals used in this study were adult mice (at least 2.5 months of age). All animal procedures were performed according to the protocols approved by Institutional Animal Care and Use Committee (IACUC).
(§2) The mice were randomly assigned into five groups for open field test, Group 1: vehicle control, Group 2: MK-801, Group 3: Compound 66 at 10 mg/kg+MK-801, Group 4: Compound 66 at 30 mg/kg+MK-801, Group 5: Compound 66 at 100 mg/kg+MK-801. Mice at Group 2-5 received an acute administration of MK-801 (Sigma-Aldrich USA), a NMDA receptor antagonist, dissolved in normal saline, at 0.2 mg/kg for open field. For pre-pulse inhibition (PPI) test, animal was randomly assigned for four groups, Group 1: vehicle control, Group 2: MK-801, Group 3: Compound 66 at 3 mg/kg+MK-801, Group 4: Compound 66 at 10 mg/kg. Group 2-4 was received 0.3 mg/kg, MK-801. MK-801 was administrated by i.p. injection 20 minutes prior to open field and PPI tests. Test article, compound 66 (dissolved in ddH2O with 65% PEG400 and 10% DMSO), was orally treated 20 minutes prior to the MK-801 administration.
Pre-pulse inhibition, using SR-LAB startle apparatus (San Diego Instruments, San Diego, CA, USA), was used to determine the efficacy of compound 66 on attenuating the MK-801 induced deficit of sensorimotor gating function in mice. Under 65 dB background noise, each session was composed of a 5-minute accumulation period followed by 64 trials in four blocks. The pulse alone (PA) trial was a 40 ms, 120 dB white noise burst. In the prepulse (pp)+pulse trials, a 20 ms white noise prepulse stimuli of 71 dB (pp6), 75 dB (pp10), and 83 dB (pp18) were presented 100 ms before a 40 ms 120 dB pulse. The non-stimulus (NS) trials presented the background noise only. The initial and the last blocks were composed of six PA trials, respectively. Two middle blocks consisted of PA, pp+pulse, and NS trials. These trials were presented pseudo-randomly and separated by intertribal intervals of 15 seconds on average (varying between 10 to 20 s). The percentage of prepulse inhibition was evaluated by the following formula: % PPI=100×[(PA score)−(pp-P score)]/(PA score), where the PA score was the average of the PA value in the middle blocks.
as §2, with “74” for “66”, “field test.” for “field.”
All mice were tested with open field and pre-pulse inhibition tasks. The open field and pre-pulse inhibition tasks were used to evaluate the efficacy of the compound 74 on attenuating the MK-801 induced hyper-locomotion and deficit of sensorimotor gating function in mice, respectively. The apparatus and recording method of open field and pre-pulse inhibition task were as described above in Example 45. […]

MK-801 treated mice [3] = test: Open field test, MK-801 induced hyper-locomotion; assay type: in vivo
Method: as §1, §2
The open field task is a common measurement of novelty induced exploratory behavior and general activity in both mice and rats. The objective of this experiment was to evaluate the efficacy of compound 66 on attenuating the MK-801 induced hyper-locomotion. In this study, the mice were placed in a Plexiglas cage (37.5 cm×21.5 cm×18 cm) under 50-65 lux light intensity. Their spontaneous locomotor activities were measured for 60 minutes using the Photobeam Activity System (PAS)-open field (San Diego Instruments, San Diego, CA, USA). The total number of photo beam breaks of each mouse was measured as an index of locomotion activity.
as §2, with “74” for “66”, “field test.” for “field.”
All mice were tested with open field and pre-pulse inhibition tasks. The open field and pre-pulse inhibition tasks were used to evaluate the efficacy of the compound 74 on attenuating the MK-801 induced hyper-locomotion and deficit of sensorimotor gating function in mice, respectively. The apparatus and recording method of open field and pre-pulse inhibition task were as described above in Example 45.
Mice at Group 2-5 received an acute administration of MK-801 (Sigma-Aldrich USA), a NMDA receptor antagonist, dissolved in normal saline, at 0.2 mg/kg for open field test. […] Group […] was received 0.3 mg/kg, MK-801. MK-801 was administrated by i.p. injection 20 minutes prior to open field and PPI tests.
The open field task is a common measurement of novelty induced exploratory behavior and general activity in both mice and rats. […] In this study, the mice were placed in a Plexiglas cage (37.5 cm×21.5 cm×18 cm) under 50-65 lux light intensity. […]

SARS-CoV-2 3CLPro = SARS-CoV-2 3CLPro (Severe acute respiratory syndrome coronavirus 2 (2019-nCoV) (SARS-CoV-2), UniProt P0DTD1); test: biochemical
[4] = final DMSO concentration 2%, read-out: IC50
[5] = final DMSO concentration 2%, read-out: IC50 (μg/mL) (converted)

Chain of human D-amino acid oxidase (hDAAO) (P14920 whole entry): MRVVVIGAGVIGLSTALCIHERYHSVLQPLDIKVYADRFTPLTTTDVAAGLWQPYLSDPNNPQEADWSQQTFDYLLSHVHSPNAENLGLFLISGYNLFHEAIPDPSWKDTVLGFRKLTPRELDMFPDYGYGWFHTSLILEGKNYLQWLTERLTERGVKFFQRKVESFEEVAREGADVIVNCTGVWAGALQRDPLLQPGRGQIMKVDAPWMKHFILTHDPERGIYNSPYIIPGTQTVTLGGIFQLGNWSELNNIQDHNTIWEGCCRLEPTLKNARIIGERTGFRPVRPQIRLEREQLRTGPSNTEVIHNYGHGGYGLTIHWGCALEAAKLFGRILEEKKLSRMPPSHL

Compound	IC50 [1] [nM]	IC50 (SARS-CoV-2 3CLPro; [4]) [nM]	IC50 (SARS-CoV-2 3CLPro; [5]) [nM]	further results
O=C(O)c1cc(O)c(O)c(OC(=O)c2cc(O)c(O)c(OC(=O)c3cc(O)c(O)c(OC(=O)c4cc(O)c(O)c(OC(=O)c5cc(O)c(O)c(OC(=O)c6cc(CCc7ccc(C(F)(F)F)cc7)n[nH]6)c5)c4)c3)c2)c1 [Compound 66, 3-((3-((3-((3-((3,4-dihydroxy-5-((3-(4-(trifluoromethyl)phenethyl)-1H-pyrazole-5-carbonyl)oxy)benzoyl)oxy)-4,5-dihydroxybenzoyl)oxy)-4,5-dihydroxybenzoyl)oxy)-4,5-dihydroxybenzoyl)oxy)-4,5-dihydroxybenzoic acid]	25	–	–	effect on pre-pulse inhibition vs MK-801 group (MK-801 treated mice [2]; 71 dB pre-pulse, 10 mg/kg oral): relieve PPI deficit to basal level; effect on pre-pulse inhibition vs MK-801 group (MK-801 treated mice [2]; 75 dB and 83 dB pre-pulse, 3 mg/kg oral): marginal improvement; effect on pre-pulse inhibition vs MK-801 group (MK-801 treated mice [2]; 75 dB and 83 dB pre-pulse, 10 mg/kg oral): significantly higher percentage of pre-pulse inhibition; effect on MK-801 induced hyper-locomotion vs MK-801 group (MK-801 treated mice [3]; 10, 30 and 100 mg/kg oral, dose-dependent): significantly reduced; relief of MK801-induced hyperactivity (MK-801 treated mice [3]; high dose 100 mg/kg oral, MK-801 0.2 mg/kg i.p., open field): 67%
O=C(O)c1cc(O)c(O)c(OC(=O)c2cc(O)c(O)c(OC(=O)c3cc(O)c(O)c(OC(=O)c4cc(O)c(O)c(OC(=O)c5cc(O)c(O)c(OC(=O)c6ccccc6)c5)c4)c3)c2)c1 [Compound 77, 3-((3-((3-((3-((3-(benzoyloxy)-4,5-dihydroxybenzoyl)oxy)-4,5-dihydroxybenzoyl)oxy)-4,5-dihydroxybenzoyl)oxy)-4,5-dihydroxybenzoyl)oxy)-4,5-dihydroxybenzoic acid]	72	–	–	IC50 (SARS-CoV-2 3CLPro; final DMSO concentration 0.4%, read-out: IC50): 4330 nM; IC50 (SARS-CoV-2 3CLPro; final DMSO concentration 0.4%, read-out: IC50 (μg/mL) (converted)): 4330 nM
O=C(CC1CCCCC1)Oc1cc(C(=O)Oc2cc(C(=O)Oc3cc(C(=O)Oc4cc(C(=O)Oc5cc(C(=O)O)cc(O)c5O)cc(O)c4O)cc(O)c3O)cc(O)c2O)cc(O)c1O [Compound 80, 3-((3-((3-((3-((3-(2-cyclohexylacetoxy)-4,5-dihydroxybenzoyl)oxy)-4,5-dihydroxybenzoyl)oxy)-4,5-dihydroxybenzoyl)oxy)-4,5-dihydroxybenzoyl)oxy)-4,5-dihydroxybenzoic acid]	58	> 62500	> 62500	–
O=C(Oc1ccccc1)c1cc(O)c(O)c(OC(=O)c2cc(O)c(O)c(OC(=O)c3cc(O)c(O)c(OC(=O)c4cc(O)c(O)c(OC(=O)c5cc(O)c(O)c(OC(=O)c6ccccc6)c5)c4)c3)c2)c1 [Compound 85, 5-((5-((5-((2,3-dihydroxy-5-(phenoxycarbonyl)phenoxy)carbonyl)-2,3-dihydroxyphenoxy)carbonyl)-2,3-dihydroxyphenoxy)carbonyl)-2,3-dihydroxyphenyl 3-(benzoyloxy)-4,5-dihydroxybenzoate]	31	2370	2370	–
O=C(OCc1cc(CCc2ccc(F)cc2)n[nH]1)c1cc(O)c(O)c(OC(=O)c2cc(O)c(O)c(OC(=O)c3cc(O)c(O)c(OC(=O)c4cc(O)c(O)c(OC(=O)c5cc(O)c(O)c(O)c5)c4)c3)c2)c1 [Compound 92, 5-((5-((5-((5-(((3-(4-fluorophenethyl)-1H-pyrazol-5-yl)methoxy)carbonyl)-2,3-dihydroxyphenoxy)carbonyl)-2,3-dihydroxyphenoxy)carbonyl)-2,3-dihydroxyphenoxy)carbonyl)-2,3-dihydroxyphenyl 3,4,5-trihydroxybenzoate]	23	2420	2420	–
O=C(O)c1cc(O)c(O)c(OC(=O)c2cc(O)c(O)c(OC(=O)c3cc(O)c(O)c(OC(=O)c4cc(O)c(O)c(O)c4)c3)c2)c1 [Compound 149, 3-((3-((3,4-dihydroxy-5-((3,4,5-trihydroxybenzoyl)oxy)benzoyl)oxy)-4,5-dihydroxybenzoyl)oxy)-4,5-dihydroxybenzoic acid]	48	–	–	–
